# Test results as given in ChEMBL document CHEMBL5338768, “Discovery of PMSA Derivative 11 as a Novel Lead Compound for Therapeutic Treatment of Osteoporosis In Vitro and In Vivo” (J Med Chem, 2023).
# Active and inactive are the calls of the source. The rule behind the calls is not given here.
# Tests used:
# [1] = system: Osteoclast; assay: Anti-osteoclastogenesis in RANKL induced C57/BL6 mouse osteoclast assessed as formation of mature osteoclast measured at 1 uM by TRAP-staining based microscopic analysis relative to control; format: functional
# [2] = system: BMDM; assay: Anti-osteoclastogenesis in RANKL/M-CSF induced C57/BL6 mouse osteogenic differentiated BMDM assessed as suppression of mRNA level of osteoclastogenesis related Acp5 gene expression measured for 0 to 4 days by qRT-PCR analysis; format: functional, cell-based; settings: time 0-4 day
# [3] = system: BMDM; assay: Anti-osteoclastogenesis in RANKL/M-CSF induced C57/BL6 mouse osteogenic differentiated BMDM assessed as decrease in pit area at 0.5 to 2 uM for 6 days by measuring fluorescence intensity using fluorescein amine labelled calcium plate method; format: functional, cell-based; settings: dose 0.5-2 µM, time 6.0 day
# [4] = system: BMDM; assay: Cytotoxicity in RANKL induced C57/BL6 mouse BMDM incubated at <4 uM for 48 hrs; format: functional, cell-based
# [5] = system: BMDM; assay: Anti-osteoclastogenesis in RANKL/M-CSF induced C57/BL6 mouse osteogenic differentiated BMDM assessed as suppression of mRNA level of osteoclastogenesis related Atp6v0d2 gene expression measured for 0 to 4 days by qRT-PCR analysis; format: functional, cell-based; settings: time 0-4 day
# [6] = system: Osteoclast; assay: Anti-osteoclastogenesis in RANKL induced C57/BL6 mouse osteoclast assessed as blocking of formation of multinucleated mature osteoclast incubated for 48 hrs; format: functional, cell-based; settings: dose 62.5-4000 nM
# [7] = system: BMDM; assay: Anti-osteoclastogenesis in RANKL induced C57/BL6 mouse osteogenic differentiated BMDM assessed as inhibition of protease Ctsk-protein expression measured at 1 uM for 0 to 4 days by Western blotting analysis; format: functional, cell-based; settings: time 0-4 day
# [8] = target: T1, Nuclear factor of activated T-cells, cytoplasmic 1 (Mus musculus) (UniProt O88942); assay: Inhibition of pronase mediated NFATc1 degradation in mouse osteogenic differentiated BMDM multi nuclear mature osteoclast at 50 uM for 1 hr by drug affinity responsive target stability analysis; format: cell-based
# T1 sequence (whole entry): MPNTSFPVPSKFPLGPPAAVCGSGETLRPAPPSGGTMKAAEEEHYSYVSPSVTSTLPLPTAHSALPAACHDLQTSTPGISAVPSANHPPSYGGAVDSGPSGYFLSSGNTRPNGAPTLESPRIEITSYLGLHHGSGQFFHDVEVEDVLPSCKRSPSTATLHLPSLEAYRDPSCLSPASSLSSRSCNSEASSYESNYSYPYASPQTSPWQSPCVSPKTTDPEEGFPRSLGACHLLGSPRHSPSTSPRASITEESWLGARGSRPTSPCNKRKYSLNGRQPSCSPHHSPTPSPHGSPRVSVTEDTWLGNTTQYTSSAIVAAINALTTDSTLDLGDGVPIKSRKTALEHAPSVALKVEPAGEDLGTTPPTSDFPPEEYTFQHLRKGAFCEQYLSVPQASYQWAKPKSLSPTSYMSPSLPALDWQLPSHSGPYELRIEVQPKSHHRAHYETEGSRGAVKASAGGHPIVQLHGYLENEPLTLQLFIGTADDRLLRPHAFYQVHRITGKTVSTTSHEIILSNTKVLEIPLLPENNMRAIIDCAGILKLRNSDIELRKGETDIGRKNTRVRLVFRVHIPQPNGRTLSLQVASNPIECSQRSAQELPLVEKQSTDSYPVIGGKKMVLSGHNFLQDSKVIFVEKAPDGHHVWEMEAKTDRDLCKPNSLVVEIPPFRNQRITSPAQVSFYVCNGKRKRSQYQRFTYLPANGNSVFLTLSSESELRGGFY
# [9] = system: BMDM; assay: Anti-osteoclastogenesis in RANKL induced C57/BL6 mouse osteogenic differentiated BMDM assessed as inhibition of N-FkappaB protein expression measured at 1 uM for 0 to 4 days by Western blotting analysis; format: functional, cell-based; settings: time 0-4 day
# [10] = system: BMDM; assay: Anti-osteoclastogenesis in RANKL/M-CSF induced C57/BL6 mouse osteogenic differentiated BMDM assessed as suppression of mRNA level of osteoclastogenesis related Mmp9 gene expression measured for 0 to 4 days by qRT-PCR analysis; format: functional, cell-based; settings: time 0-4 day
# [11] = system: BMDM; assay: Anti-osteoclastogenesis in RANKL induced C57/BL6 mouse osteogenic differentiated BMDM assessed as decreased NAFTc1 protein level in nucleus measured for 48 hrs by Western blotting analysis; format: functional, cell-based
# [12] = system: Osteoclast; assay: Anti-osteoclastogenesis in RANKL induced C57/BL6 mouse osteoclast assessed as inhibition of differentiation of bone marrow derived macrophage measured by TRAP-staining based microscopic analysis; format: functional, cell-based
# [13] = system: BMDM; assay: Anti-osteoclastogenesis in RANKL/M-CSF induced C57/BL6 mouse osteogenic differentiated BMDM assessed as expression of GSK3beta in NAFTc1 translocation by immunofluorescence microscopy; format: functional, cell-based
# [14] = system: BMDM; assay: Cytotoxicity in RANKL induced C57/BL6 mouse mouse osteogenic differentiated BMDM assessed as blocking of formation of multinucleated mature osteoclast incubated at 4 uM for 48 hrs; format: functional, cell-based
# [15] = system: BMDM; assay: Anti-osteoclastogenesis in RANKL/M-CSF induced C57/BL6 mouse osteogenic differentiated BMDM assessed as expression of CRM1 in NAFTc1 translocation by immunofluorescence microscopy; format: functional, cell-based
# [16] = system: Calvarial osteoblast; assay: Effect on osteogenesis in BMP2 stimulated mouse osteogenic differentiated calvaria primary osteoblast assessed as chane in percentage of ALP positive density at 0.125 to 16 uM with replacement of compound containing media daily for 9 days by ALP staining analysis; format: functional, cell-based; settings: dose 0.125-16 µM, time 9.0 day
# [17] = system: BMDM; assay: Anti-osteoclastogenesis in RANKL induced C57/BL6 mouse osteogenic differentiated BMDM assessed as inhibition of TRAF6 protein expression measured at 1 uM for 0 to 4 days by Western blotting analysis; format: functional, cell-based; settings: time 0-4 day
# [18] = system: BMDM; assay: Anti-osteoclastogenesis in RANKL/M-CSF induced C57/BL6 mouse osteogenic differentiated BMDM assessed as expression of GAPDH in NAFTc1 translocation by immunofluorescence microscopy; format: functional, cell-based
# [19] = system: BMDM; assay: Anti-osteoclastogenesis in RANKL/M-CSF induced C57/BL6 mouse osteogenic differentiated BMDM assessed as suppression of mRNA level of osteoclastogenesis related Dc-stamp gene expression measured for 0 to 4 days by qRT-PCR analysis; format: functional, cell-based; settings: time 0-4 day
# [20] = system: Mus musculus; assay: Anti-osteoporosis activity in OVX induced osteoporosis C57BL/6 mouse model assessed as prevention of bone loss in femur at 20 mg/kg, ip daily for 4 weeks by micro computed tomographic analysis; format: functional, organism-based
# [21] = system: BMDM; assay: Anti-osteoclastogenesis in RANKL induced C57/BL6 mouse osteogenic differentiated BMDM assessed as inhibition of c-src protein expression measured at 1 uM for 0 to 4 days by Western blotting analysis; format: functional, cell-based; settings: time 0-4 day
# [22] = system: BMDM; assay: Anti-osteoclastogenesis in RANKL/M-CSF induced C57/BL6 mouse osteogenic differentiated BMDM assessed as suppression of mRNA level of osteoclastogenesis related Nfatc1 gene expression measured for 0 to 4 days by qRT-PCR analysis; format: functional, cell-based; settings: time 0-4 day
# [23] = system: BMDM; assay: Anti-osteoclastogenesis in RANKL/M-CSF induced C57/BL6 mouse osteogenic differentiated BMDM assessed as expression of calcineurin A in NAFTc1 translocation by immunofluorescence microscopy; format: functional, cell-based
# [24] = system: BMDM; assay: Anti-osteoclastogenesis in RANKL/M-CSF induced C57/BL6 mouse osteogenic differentiated BMDM assessed as repression of F-actin ring at 500 to 2000 nM spectra max i3x fluorescence plate reader based microscopic analysis; format: functional, cell-based; settings: dose 500-2000 nM
# [25] = system: BMDM; assay: Anti-osteoclastogenesis in RANKL induced C57/BL6 mouse osteogenic differentiated BMDM assessed as inhibition of NFATc1 protein expression measured at 1 uM for 0 to 4 days by Western blotting analysis; format: functional, cell-based; settings: time 0-4 day
# [26] = Toxicity in OVX induced osteoporosis C57BL/6 mouse model assessed as reduction of body weight at 20 mg/kg, ip daily for 4 weeks measured every week; format: organism-based; settings: in vivo, 672 h
# [27] = system: BMDM; assay: Anti-osteoclastogenesis in RANKL induced C57/BL6 mouse osteogenic differentiated BMDM assessed as inhibition of c-fos protein expression measured at 1 uM for 0 to 4 days by Western blotting analysis; format: functional, cell-based; settings: time 0-4 day
# [28] = system: BMDM; assay: Anti-osteoclastogenesis in RANKL/M-CSF induced C57/BL6 mouse osteogenic differentiated BMDM assessed as suppression of mRNA level of osteoclastogenesis related Ctsk-gene expression measured for 0 to 4 days by qRT-PCR analysis; format: functional, cell-based; settings: time 0-4 day
# [29] = system: Osteoclast; assay: Anti-osteoclastogenesis in human RANKL/human M-CSF induced human iPSC-derived macrophage assessed as inhibition of mature osteoclast differentiation measured for 10 days by TRAP staining assay; format: functional, cell-based; settings: time 10.0 day
# [30] = system: BMDM; assay: Anti-osteoclastogenesis in RANKL induced C57/BL6 mouse osteogenic differentiated BMDM assessed as increased NAFTc1 protein level in cytoplasm measured for 48 hrs by Western blotting analysis; format: functional, cell-based
# [31] = system: BMDM; assay: Anti-osteoclastogenesis in RANKL/M-CSF induced C57/BL6 mouse osteogenic differentiated BMDM assessed as repression of F-actin ring at 10 uM spectra max i3x fluorescence plate reader based microscopic analysis; format: functional, cell-based
# [32] = system: BMDM; assay: Anti-osteoclastogenesis in RANKL/M-CSF induced C57/BL6 mouse osteogenic differentiated BMDM assessed as decrease in pit area at 10 uM for 6 days by measuring fluorescence intensity using fluorescein amine labelled calcium plate method; format: functional, cell-based; settings: time 6.0 day
compound,measurement,setting,value
CS(=O)(=O)N(CC(=O)Nc1ccccc1Sc1ccccc1)c1cccc(Cl)c1,inhibition at 1 µM,[1],16.2%
CC(C)(C)c1ccc(OC(=O)c2cccc(N(CC(=O)Nc3ccccc3Sc3ccccc3)S(C)(=O)=O)c2)cc1,inhibition at 1 µM,[1],4.07%
NCCCC(O)(P(=O)(O)O)P(=O)(O)O [ALENDRONIC ACID],inhibition at 1 µM,[1],30.9%
COC(=O)c1cccc(N(CC(=O)Nc2ccccc2Sc2ccccc2)S(C)(=O)=O)c1,inhibition at 1 µM,[1],8.13%
COc1ccc(OC(=O)c2cccc(N(CC(=O)Nc3ccccc3Sc3ccccc3)S(C)(=O)=O)c2)cc1,inhibition at 1 µM,[1],25.7%
Cc1ccc(OC(=O)c2cccc(N(CC(=O)Nc3ccccc3Sc3ccccc3)S(C)(=O)=O)c2)cc1,inhibition at 1 µM,[1],14.2%
CS(=O)(=O)N(CC(=O)Nc1ccccc1Sc1ccccc1)c1cccc(C(=O)Oc2ccc([N+](=O)[O-])cc2)c1,inhibition at 1 µM,[1],15.3%
COC(=O)c1cccc(NCC(=O)Nc2ccccc2Sc2ccccc2)c1,Activity,[2],Active
same,Activity,[3],Dose-Dependent Effect
same,Activity,[4],inactive
same,Activity,[5],Active
same,Activity,[6],Dose-Dependent Effect
same,Activity,[7],Active
same,inhibition,[8],Active
same,Activity,[9],inactive
same,Activity,[10],Active
same,Activity,[11],Active
same,IC50,[12],0.323 µM
same,Activity,[13],inactive
same,Activity,[14],Active
same,Activity,[15],inactive
same,Activity,[16],inactive
same,Activity,[17],inactive
same,Activity,[18],inactive
same,Activity,[19],Active
same,Activity,[20],Active
same,Activity,[21],inactive
same,Activity,[22],Active
same,Activity,[23],inactive
same,Activity,[24],Active
same,Activity,[25],inactive
same,Activity,[26],Non-Toxic
same,Activity,[27],inactive
same,Activity,[28],Active
same,Activity,[29],Active
same,inhibition at 1 µM,[1],74.5%
same,Activity,[30],Active
CS(=O)(=O)N(CC(=O)Nc1ccccc1Sc1ccccc1)c1cccc(C(=O)Oc2ccc(Cl)cc2)c1,inhibition at 1 µM,[1],23.9%
CS(=O)(=O)N(CC(=O)Nc1ccccc1Sc1ccccc1)c1cccc(C(=O)Oc2ccc3ccccc3c2)c1,inhibition at 1 µM,[1],11.3%
CC(=O)c1cccc(N(CC(=O)Nc2ccccc2Sc2ccccc2)S(C)(=O)=O)c1,Activity,[20],inactive
same,Activity,[31],Active
same,inhibition at 1 µM,[1],6.09%
same,Activity,[32],Active
Cc1cccc(OC(=O)c2cccc(N(CC(=O)Nc3ccccc3Sc3ccccc3)S(C)(=O)=O)c2)c1,inhibition at 1 µM,[1],19%
CS(=O)(=O)N(CC(=O)Nc1ccccc1Sc1ccccc1)c1cccc(C(=O)Oc2cccc3ccccc23)c1,inhibition at 1 µM,[1],9.03%
Cc1ccccc1OC(=O)c1cccc(N(CC(=O)Nc2ccccc2Sc2ccccc2)S(C)(=O)=O)c1,inhibition at 1 µM,[1],15.3%
CS(=O)(=O)N(CC(=O)Nc1ccccc1Sc1ccccc1)c1cccc(C(=O)Oc2cccc([N+](=O)[O-])c2)c1,inhibition at 1 µM,[1],4.74%
O=C(CNc1cccc(C(=O)Oc2ccc(Cl)cc2)c1)Nc1ccccc1Sc1ccccc1,inhibition at 1 µM,[1],43.2%
COc1ccc(OC(=O)c2cccc(NCC(=O)Nc3ccccc3Sc3ccccc3)c2)cc1,inhibition at 1 µM,[1],50.9%
COc1ccccc1OC(=O)c1cccc(N(CC(=O)Nc2ccccc2Sc2ccccc2)S(C)(=O)=O)c1,inhibition at 1 µM,[1],20.3%
CS(=O)(=O)N(CC(=O)Nc1ccccc1Sc1ccccc1)c1cccc(C(=O)O)c1,inhibition at 1 µM,[1],0.11%
CS(=O)(=O)N(CC(=O)Nc1ccccc1Sc1ccccc1)c1cccc(C(=O)Oc2ccccc2C#N)c1,inhibition at 1 µM,[1],11.1%
COc1ccccc1OC(=O)c1cccc(NCC(=O)Nc2ccccc2Sc2ccccc2)c1,inhibition at 1 µM,[1],52.3%
